Source: the supplement of paper PMC11208160

Experiment: recombinant UMI read abundance after kanamycin selection (control-corrected) (log10(CPM+1)); higher = more efficient recombination; extreme values may be limits of the assay; sequences stand for … in AGTGCAGAGAAAATCGGCCAGTTTTCTCTGCCTGCAGTCCGCATGCCGTGGGACCCCTTGGGTTCTAACCTGTTGCCTAGATTTATGCAGCGGACTGCCTTTCTCCCAAAGTGATAAACCGG…AGGTTGGTTTCACT; site = the 11-nt donor
In short: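 Pooled Escherichia coli screen of donor and donor-binding-loop pairs for the IS621 bridge recombinase. Each pair sits with a 12-nt UMI on a plasmid carrying a promoterless kanamycin gene. The library was co-electroporated with a target plasmid encoding a fixed target and T7-inducible recombinase, then plated with IPTG (0.07 mM) plus kanamycin, or unselected, each in two replicates. Recombinant UMIs were PCR-amplified across the donor–target junction and sequenced. Counts became CPM, averaged over replicates, scaled by control-derived factors and reported as log10(CPM+1).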
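Note: IS621 bridge recombinase in Escherichia coli cells against a fixed T5 target plasmid.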

| Sequence | recombinant UMI read abundance (log10) |
| --- | --- |
| TAGGAATCATGGACCGGTTTTCCCGGTAATCCGTATTTGCT (site TAGGAATCTTG) | 1.5 |
| TAGGATGCATGGACCGGTTTTCCCGGTAATCCGTATTTGGC (site TAGGATGCTGC) | 3.08 |
| TAGGCAACATGGACCGGTTTTCCCGGTAATCCGTATTTGAA (site TAGGCAACTTT) | 0.0147 |
| TAGGGACCATGGACCGGTTTTCCCGGTAATCCGTATTTGGT (site TAGGGACCTAC) | 0.00346 |
| TAGGTAACATGGACCGGTTTTCCCGGTAATCCGTATTTGAC (site TAGGTAACTGT) | 2.17 |
| TAGGTGTCATGGACCGGTTTTCCCGGTAATCCGTATTTGCA (site TAGGTGTCTTG) | 3.29 |
| TAGGTTCCATGGACCGGTTTTCCCGGTAATCCGTATTTGCC (site TAGGTTCCTGG) | 1.32 |
| TAGTAAGCATGGACCGGTTTTCCCGGTAATCCGTATTTGTA (site TAGTAAGCTTA) | 2.8 |
| TAGTACCCATGGACCGGTTTTCCCGGTAATCCGTATTTGGT (site TAGTACCCTAC) | 0.271 |
| TAGTACTCATGGACCGGTTTTCCCGGTAATCCGTATTTGCA (site TAGTACTCTTG) | 2.61 |
| TAGTATACATGGACCGGTTTTCCCGGTAATCCGTATTTGAC (site TAGTATACTGT) | 2.58 |
| TAGTATACATGGACCGGTTTTCCCGGTAATCCGTATTTGCA (site TAGAATACTTG) | 1.23 |
| TAGTATACATGGACCGGTTTTCCCGGTAATCCGTATTTGCA (site TAGCATACTTG) | 1.11 |
| TAGTATACATGGACCGGTTTTCCCGGTAATCCGTATTTGCA (site TAGGATACTTG) | 0.222 |
| TAGTATACATGGACCGGTTTTCCCGGTAATCCGTATTTGCA (site TAGTATACTTG) | 2.25 |
| TAGTATCCATGGACCGGTTTTCCCGGTAATCCGTATTTGCA (site TAGTATCCTTG) | 0.736 |
| TAGTGATCATGGACCGGTTTTCCCGGTAATCCGTATTTGCA (site TAGTGATCTTG) | 3.02 |
| TAGTGGGCATGGACCGGTTTTCCCGGTAATCCGTATTTGTC (site TAGTGGGCTGA) | 2.31 |
| TAGTTGCCATGGACCGGTTTTCCCGGTAATCCGTATTTGCC (site TAGTTGCCTGG) | 0 |
| TAGTTGGCATGGACCGGTTTTCCCGGTAATCCGTATTTGTG (site TAATTGGCTCA) | 0.0238 |
| TAGTTGGCATGGACCGGTTTTCCCGGTAATCCGTATTTGTG (site TACTTGGCTCA) | 0.0102 |
| TAGTTGGCATGGACCGGTTTTCCCGGTAATCCGTATTTGTG (site TAGTTGGCTCA) | 0.476 |
| TAGTTGGCATGGACCGGTTTTCCCGGTAATCCGTATTTGTG (site TATTTGGCTCA) | 0.00327 |
| TAGTTTCCATGGACCGGTTTTCCCGGTAATCCGTATTTGAA (site TAGTTTCCTTT) | 0.228 |
| TAGTTTGCATGGACCGGTTTTCCCGGTAATCCGTATTTGCC (site TAGTTTGCTGG) | 0 |

| Sequence | recombinant UMI read abundance (log10) |
| --- | --- |
| TATACCCCATGGACCGGTTTTCCCGGTAATCCGTATTTGAC (site TATACCCCTGT) | 1.5 |
| TATACTACATGGACCGGTTTTCCCGGTAATCCGTATTTGTG (site TATACTACTCA) | 0.195 |
| TATATCGCATGGACCGGTTTTCCCGGTAATCCGTATTTGAT (site TATATCGCTAT) | 0.63 |
| TATATGGCATGGACCGGTTTTCCCGGTAATCCGTATTTGGT (site TATATGGCTAC) | 0.39 |
| TATATGGCATGGACCGGTTTTCCCGGTAATCCGTATTTGTT (site TATATGGCTAA) | 0.36 |
| TATCAGGCATGGACCGGTTTTCCCGGTAATCCGTATTTGTG (site TATCAGGCTCA) | 0.113 |
| TATCATCCATGGACCGGTTTTCCCGGTAATCCGTATTTGGT (site TATCATCCTAC) | 0.0117 |
| TATCCCGCATGGACCGGTTTTCCCGGTAATCCGTATTTGTT (site TATCCCGCTAA) | 0.479 |
| TATCTTACATGGACCGGTTTTCCCGGTAATCCGTATTTGTA (site TATCTTACTTA) | 0.0229 |
| TATGAATCATGGACCGGTTTTCCCGGTAATCCGTATTTGCC (site TATGAATCTGG) | 1.12 |
| TATGAATCATGGACCGGTTTTCCCGGTAATCCGTATTTGCG (site TAAGAATCTCG) | 1.85 |
| TATGAATCATGGACCGGTTTTCCCGGTAATCCGTATTTGCG (site TACGAATCTCG) | 2.23 |
| TATGAATCATGGACCGGTTTTCCCGGTAATCCGTATTTGCG (site TAGGAATCTCG) | 0.768 |
| TATGAATCATGGACCGGTTTTCCCGGTAATCCGTATTTGCG (site TATGAATCTCG) | 2.18 |
| TATGACCCATGGACCGGTTTTCCCGGTAATCCGTATTTGAG (site TATGACCCTCT) | 0.00635 |
| TATGAGCCATGGACCGGTTTTCCCGGTAATCCGTATTTGGA (site TATGAGCCTTC) | 0.00722 |
| TATGCGGCATGGACCGGTTTTCCCGGTAATCCGTATTTGCT (site TATGCGGCTAG) | 0.532 |
| TATGCGGCATGGACCGGTTTTCCCGGTAATCCGTATTTGCT (site TCTGCGGCTAG) | 0.00356 |
| TATGCGGCATGGACCGGTTTTCCCGGTAATCCGTATTTGCT (site TGTGCGGCTAG) | 0.029 |
| TATGCGGCATGGACCGGTTTTCCCGGTAATCCGTATTTGCT (site TTTGCGGCTAG) | 0.00802 |
| TATGTAACATGGACCGGTTTTCCCGGTAATCCGTATTTGAC (site GTACCGTCTAA) | 0.0137 |
| TATGTCCCATGGACCGGTTTTCCCGGTAATCCGTATTTGGA (site TATGTCCCTTC) | 0.00458 |
| TATTCCCCATGGACCGGTTTTCCCGGTAATCCGTATTTGTA (site TATTCCCCTTA) | 0.0102 |
| TATTCCCCATGGACCGGTTTTCCCGGTAATCCGTATTTGTA (site TCTTCCCCTTA) | 0.207 |
| TATTCCCCATGGACCGGTTTTCCCGGTAATCCGTATTTGTA (site TGTTCCCCTTA) | 0.254 |

| Sequence | recombinant UMI read abundance (log10) |
| --- | --- |
| TATTCCCCATGGACCGGTTTTCCCGGTAATCCGTATTTGTA (site TTTTCCCCTTA) | 0.0134 |
| TATTCGGCATGGACCGGTTTTCCCGGTAATCCGTATTTGTG (site TATTAGGCTCA) | 0.0202 |
| TATTCGGCATGGACCGGTTTTCCCGGTAATCCGTATTTGTG (site TATTCGGCTCA) | 0.131 |
| TATTCGGCATGGACCGGTTTTCCCGGTAATCCGTATTTGTG (site TATTGGGCTCA) | 0.00845 |
| TATTCGGCATGGACCGGTTTTCCCGGTAATCCGTATTTGTG (site TATTTGGCTCA) | 0.0132 |
| TATTGCACATGGACCGGTTTTCCCGGTAATCCGTATTTGGT (site TATTGCACTAC) | 0.029 |
| TATTTGGCATGGACCGGTTTTCCCGGTAATCCGTATTTGCG (site TATTTGGCTCA) | 0.0189 |
| TATTTGGCATGGACCGGTTTTCCCGGTAATCCGTATTTGCG (site TATTTGGCTCC) | 0.0115 |
| TATTTGGCATGGACCGGTTTTCCCGGTAATCCGTATTTGCG (site TATTTGGCTCG) | 0.0194 |
| TATTTGGCATGGACCGGTTTTCCCGGTAATCCGTATTTGCG (site TATTTGGCTCT) | 0.0118 |
| TATTTGGCATGGACCGGTTTTCCCGGTAATCCGTATTTGTC (site TATTTGGCTAA) | 0.0189 |
| TATTTGGCATGGACCGGTTTTCCCGGTAATCCGTATTTGTC (site TATTTGGCTCA) | 0.00726 |
| TATTTGGCATGGACCGGTTTTCCCGGTAATCCGTATTTGTC (site TATTTGGCTGA) | 0 |
| TATTTGGCATGGACCGGTTTTCCCGGTAATCCGTATTTGTC (site TATTTGGCTTA) | 0.00596 |
| TATTTGGCATGGACCGGTTTTCCCGGTAATCCGTATTTGTG (site AATTTGGCTCA) | 0.0279 |
| TATTTGGCATGGACCGGTTTTCCCGGTAATCCGTATTTGTG (site CATTTGGCTCA) | 0.0142 |
| TATTTGGCATGGACCGGTTTTCCCGGTAATCCGTATTTGTG (site GATTTGGCTCA) | 0.026 |
| TATTTGGCATGGACCGGTTTTCCCGGTAATCCGTATTTGTG (site TAATTGGCTCA) | 0.0238 |
| TATTTGGCATGGACCGGTTTTCCCGGTAATCCGTATTTGTG (site TACTTGGCTCA) | 0.00946 |
| TATTTGGCATGGACCGGTTTTCCCGGTAATCCGTATTTGTG (site TAGTTGGCTCA) | 0.00343 |
| TATTTGGCATGGACCGGTTTTCCCGGTAATCCGTATTTGTG (site TATATGGCTCA) | 0.00476 |
| TATTTGGCATGGACCGGTTTTCCCGGTAATCCGTATTTGTG (site TATCTGGCTCA) | 0.00736 |
| TATTTGGCATGGACCGGTTTTCCCGGTAATCCGTATTTGTG (site TATGTGGCTCA) | 0.0139 |
| TATTTGGCATGGACCGGTTTTCCCGGTAATCCGTATTTGTG (site TATTAGGCTCA) | 0.00968 |
| TATTTGGCATGGACCGGTTTTCCCGGTAATCCGTATTTGTG (site TATTCGGCTCA) | 0.0142 |
